Measurements reported in patent publication US9975888B2, “Aryl linked imidazole and triazole derivatives and methods of use thereof for improving the pharmacokinetics of a drug” (MERCK SHARP & DOHME CORP., priority 2013, dated 2018).
Where two headings read alike, the source gives them in different places.

Assays:
Assay type in all cases: biochemical
CYP2C9 = target: T1, CYP2C9 (Homo sapiens, UniProt P11712); test: Cocktail assay for CYPs, diclofenac 4′-hydroxylation (CYP2C9), human liver microsomes; settings: 0.1 mg/mL human liver microsomes, 10 min at 37° C.
T1 construct: 0.1 mg/mL protein human liver microsomes (BD Gentest); tissue BD Gentest; host or cells: human liver microsomes
T1 sequence (P11712 whole entry): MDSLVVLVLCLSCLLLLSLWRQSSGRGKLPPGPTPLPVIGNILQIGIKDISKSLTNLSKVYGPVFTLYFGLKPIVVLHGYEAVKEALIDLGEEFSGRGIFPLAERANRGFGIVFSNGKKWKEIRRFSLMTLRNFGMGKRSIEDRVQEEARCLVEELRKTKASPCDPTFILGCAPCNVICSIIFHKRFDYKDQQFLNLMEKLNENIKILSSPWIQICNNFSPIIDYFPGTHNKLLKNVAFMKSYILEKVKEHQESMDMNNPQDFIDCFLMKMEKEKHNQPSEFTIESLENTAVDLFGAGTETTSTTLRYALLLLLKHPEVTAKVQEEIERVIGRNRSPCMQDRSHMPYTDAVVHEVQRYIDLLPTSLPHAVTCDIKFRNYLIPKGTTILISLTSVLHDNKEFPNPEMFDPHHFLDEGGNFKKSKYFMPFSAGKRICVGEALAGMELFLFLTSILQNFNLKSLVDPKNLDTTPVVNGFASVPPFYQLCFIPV
Summary of the method: (§1)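 Pooled human liver microsomes (0.1 mg/mL) with probe cocktail incl. 5 μM diclofenac (CYP2C9) and 30 μM mephenytoin (CYP2C19), 1 mM NADPH, pH 7.4 phosphate buffer, 10 min at 37° C. Metabolites quantified by LC/MS/MS against internal standard; % inhibition versus no-inhibitor control, IC50 by non-linear regression.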

CYP3A4 [1] = target: T2, CYP3A4 (Homo sapiens, UniProt P08684); test: IC50 vs CYP3A by inhibition of lopinavir metabolism in human liver microsomes; parameters: 0.01 mg/mL protein human liver microsomes (BD Gentest); tissue BD Gentest; host or cells: human liver microsomes; settings: 1.5 μM lopinavir, 0.01 mg/mL human liver microsomes, 8 min at 37° C.; read-out: CYP IC50 (nM) 3A4 (LPV)
Summary of the method: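 Human liver microsomes (0.01 mg/mL) with 1.5 μM lopinavir, 1 mM NADPH, 3.3 mM MgCl2 in 100 mM potassium phosphate pH 7.4, 8 min at 37 °C, six compound concentrations. Summed M2/M3/M4 hydroxy metabolites quantified by LC/MS/MS against tolbutamide; % inhibition normalised between no-inhibitor and 5 μM ketoconazole controls, IC50 by non-linear regression.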
Target sequence in this assay (P08684 2-503): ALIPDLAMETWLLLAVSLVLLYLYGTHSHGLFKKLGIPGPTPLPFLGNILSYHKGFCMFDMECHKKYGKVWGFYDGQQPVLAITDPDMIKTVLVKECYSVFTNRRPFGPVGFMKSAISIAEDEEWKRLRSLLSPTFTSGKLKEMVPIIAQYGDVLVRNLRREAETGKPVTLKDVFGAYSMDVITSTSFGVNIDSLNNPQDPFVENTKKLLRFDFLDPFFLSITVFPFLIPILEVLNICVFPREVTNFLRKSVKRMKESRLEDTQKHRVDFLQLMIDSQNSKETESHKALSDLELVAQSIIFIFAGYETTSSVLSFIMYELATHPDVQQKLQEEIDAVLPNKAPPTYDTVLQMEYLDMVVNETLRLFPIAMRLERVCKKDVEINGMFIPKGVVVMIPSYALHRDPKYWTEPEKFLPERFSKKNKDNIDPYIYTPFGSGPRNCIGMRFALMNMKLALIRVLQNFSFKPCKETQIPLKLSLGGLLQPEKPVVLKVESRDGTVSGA

CYP2D6 = target: T3, CYP2D6 (Homo sapiens, UniProt P10635); test: Cocktail assay for CYPs, dextromethorphan O-demethylation (CYP2D6), human liver microsomes; settings: 5 μM dextromethorphan, 0.1 mg/mL human liver microsomes, 10 min at 37° C.; read-out: CYP IC50 (nM) 2D6
T3 construct: 0.1 mg/mL protein human liver microsomes (BD Gentest); tissue BD Gentest; host or cells: human liver microsomes
T3 sequence (P10635 whole entry): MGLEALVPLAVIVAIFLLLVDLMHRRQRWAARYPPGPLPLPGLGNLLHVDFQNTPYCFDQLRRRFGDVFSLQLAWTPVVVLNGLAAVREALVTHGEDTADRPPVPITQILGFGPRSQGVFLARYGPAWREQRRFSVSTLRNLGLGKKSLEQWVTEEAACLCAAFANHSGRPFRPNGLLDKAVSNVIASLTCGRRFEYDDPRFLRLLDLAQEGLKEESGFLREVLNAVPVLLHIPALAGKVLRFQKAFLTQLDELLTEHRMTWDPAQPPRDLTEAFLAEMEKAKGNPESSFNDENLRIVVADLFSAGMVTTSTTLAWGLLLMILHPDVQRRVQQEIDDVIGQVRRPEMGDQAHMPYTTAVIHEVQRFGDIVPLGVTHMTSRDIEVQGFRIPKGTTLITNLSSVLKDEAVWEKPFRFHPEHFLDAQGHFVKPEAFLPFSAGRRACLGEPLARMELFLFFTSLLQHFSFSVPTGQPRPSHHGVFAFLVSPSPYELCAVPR
Summary of the method: (§2)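 Pooled human liver microsomes (0.1 mg/mL) with a probe cocktail of 10 μM phenacetin, 5 μM dextromethorphan and 2 μM midazolam plus NADPH, pH 7.4, 10 min at 37° C. Each metabolite was quantified by LC/MS/MS against a tolbutamide internal standard. IC50 came from % inhibition at 6 concentrations (e.g. 0.0032–10 μM) by non-linear regression.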

CYP3A4 [2] = target: T2, CYP3A4; test: Cocktail assay for CYPs, midazolam 1′-hydroxylation (CYP3A4), human liver microsomes; parameters: 0.1 mg/mL protein human liver microsomes (BD Gentest); tissue BD Gentest; host or cells: human liver microsomes; settings: 2 μM midazolam, 0.1 mg/mL human liver microsomes, 10 min at 37° C.; read-out: CYP IC50 (nM) 3A4 (MDZ)
Summary of the method: as §2
Target sequence in this assay (P08684 whole entry): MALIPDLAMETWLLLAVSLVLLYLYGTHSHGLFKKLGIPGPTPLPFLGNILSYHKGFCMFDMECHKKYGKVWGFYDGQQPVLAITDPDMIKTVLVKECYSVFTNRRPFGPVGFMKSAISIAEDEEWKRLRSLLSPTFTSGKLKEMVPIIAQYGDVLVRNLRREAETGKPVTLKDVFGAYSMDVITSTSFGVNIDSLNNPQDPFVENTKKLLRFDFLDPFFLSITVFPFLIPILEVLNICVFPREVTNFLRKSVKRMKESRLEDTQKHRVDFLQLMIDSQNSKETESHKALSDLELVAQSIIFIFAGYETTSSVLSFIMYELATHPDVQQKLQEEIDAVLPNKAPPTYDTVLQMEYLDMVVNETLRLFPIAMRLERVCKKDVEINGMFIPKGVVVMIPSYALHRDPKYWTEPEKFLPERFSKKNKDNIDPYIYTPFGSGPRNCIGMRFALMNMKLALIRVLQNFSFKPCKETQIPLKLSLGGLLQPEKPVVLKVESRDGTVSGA

CYP2C19 = target: T4, CYP2C19 (Homo sapiens, UniProt P33261); test: Cocktail assay for CYPs, mephenytoin 4′-hydroxylation (CYP2C19), human liver microsomes; settings: 0.1 mg/mL human liver microsomes, 10 min at 37° C.
T4 construct: 0.1 mg/mL protein human liver microsomes (BD Gentest); tissue BD Gentest; host or cells: human liver microsomes
T4 sequence (P33261 whole entry): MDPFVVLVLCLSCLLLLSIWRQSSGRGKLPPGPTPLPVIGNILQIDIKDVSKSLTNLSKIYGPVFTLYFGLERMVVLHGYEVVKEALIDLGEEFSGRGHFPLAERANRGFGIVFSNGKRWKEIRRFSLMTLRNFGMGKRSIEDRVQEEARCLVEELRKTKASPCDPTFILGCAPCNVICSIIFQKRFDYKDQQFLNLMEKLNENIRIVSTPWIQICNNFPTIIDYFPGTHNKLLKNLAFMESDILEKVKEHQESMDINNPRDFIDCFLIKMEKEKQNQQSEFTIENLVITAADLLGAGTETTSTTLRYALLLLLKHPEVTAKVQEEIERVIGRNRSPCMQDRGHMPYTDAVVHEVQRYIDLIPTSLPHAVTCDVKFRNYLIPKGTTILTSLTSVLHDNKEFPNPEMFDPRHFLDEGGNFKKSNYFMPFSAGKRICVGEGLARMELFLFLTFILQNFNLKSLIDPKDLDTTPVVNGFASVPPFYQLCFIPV
Summary of the method: as §1

CYP1A2 = target: T5, CYP1A2 (Homo sapiens, UniProt P05177); test: Cocktail assay for CYPs, phenacetin O-deethylation (CYP1A2), human liver microsomes; settings: 10 μM phenacetin, 0.1 mg/mL human liver microsomes, 10 min at 37° C.; read-out: CYP IC50 (nM) 1A2
T5 construct: 0.1 mg/mL protein human liver microsomes (BD Gentest); tissue BD Gentest; host or cells: human liver microsomes
T5 sequence (P05177 1-516): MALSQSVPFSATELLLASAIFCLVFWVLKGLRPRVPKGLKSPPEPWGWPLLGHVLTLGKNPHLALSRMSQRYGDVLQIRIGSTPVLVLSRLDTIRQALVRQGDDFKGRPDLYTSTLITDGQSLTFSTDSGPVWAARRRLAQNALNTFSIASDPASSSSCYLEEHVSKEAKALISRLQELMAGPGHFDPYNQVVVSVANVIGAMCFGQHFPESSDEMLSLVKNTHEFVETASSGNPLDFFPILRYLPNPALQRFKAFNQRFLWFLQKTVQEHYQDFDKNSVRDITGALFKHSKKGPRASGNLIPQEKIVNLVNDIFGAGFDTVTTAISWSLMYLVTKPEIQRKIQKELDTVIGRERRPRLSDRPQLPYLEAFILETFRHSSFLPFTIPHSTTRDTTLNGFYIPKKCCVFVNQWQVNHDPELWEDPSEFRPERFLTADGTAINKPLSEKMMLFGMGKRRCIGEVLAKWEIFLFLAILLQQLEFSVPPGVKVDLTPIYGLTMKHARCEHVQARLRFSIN
Summary of the method: as §2

[3] = 5 μM diclofenac, read-out: CYP IC50 (nM) 2C9
[4] = 30 μM mephenytoin, read-out: CYP IC50 (nM) 2C19
[5] = CYP IC50 (nM) 2C9, 5 μM diclofenac
[6] = CYP IC50 (nM) 2C19, 30 μM mephenytoin

Row | IC50 (CYP2C9; [3]) [nM] | IC50 (CYP3A4 [1]) [nM] | IC50 (CYP2D6) [nM] | IC50 (CYP3A4 [2]) [nM] | IC50 (CYP2C19; [4]) [nM] | IC50 (CYP1A2) [nM] | SMILES | IC50 (CYP2C9; [5]) [nM] | IC50 (CYP2C19; [6]) [nM]
1 | 1260 | 8.9 | 4900 | 18.5 | 9230 | > 10000 | O=S(=O)(c1cnc(N2CCN3C[C@H](O)C[C@H]3C2)s1)N1CCc2cccc(-c3cncn3CCc3ccc(F)cc3)c2C1 [Compound 65, (7R,8aS)-2-(5-((8-(1-(4-fluorophenethyl)-1H-imidazol-5-yl)-3,4-dihydroisoquinolin-2(1H)-yl)sulfonyl)thiazol-2-yl)octahydropyrrolo[1,2-a]pyrazin-7-ol] |  | 
2 | 2220 | 23 | 2140 | 50.3 | 1890 | 9490 | O=S(=O)(c1cnc(Cl)c(Br)c1)N1CCCC1c1ccccc1-c1cncn1CCc1ccc(F)cc1 (stereo not drawn) [Compound 25, 3-bromo-2-chloro-5-((2-(2-(1-(4-fluoro-phenethyl)-1H-imidazol-5-yl)phenyl)pyrrolidin-1-yl)sulfonyl) pyridine] |  | 
3 | 216 | 2.1 | 2330 | 5.47 | 149 | 1470 | COc1ccc(OC)c(S(=O)(=O)N2CCCC2c2cccc(-c3cncn3CCc3ccc(F)cc3)c2)c1 (single isomer, unassigned) [Compound 53b, (R or S)-5-(3-(1-((2,5-Dimethoxy-phenyl)sulfonyl)pyrrolidin-2-yl)phenyl)-1-(4-fluorophenethyl)-1H-imidazole] |  | 
4 | 1900 | 1 | 2420 | 5.5 | 4400 | > 10000 | O=S(=O)(c1ccc(NCC(O)C2CC2)nc1)N1CCCC1c1ccccc1-c1cncn1CCc1ccc(F)cc1 (single isomer, unassigned) [Compound 34b, 1-cyclopropyl-2-((5-(((R or S)-2-(2-(1-(4-fluorophenethyl)-1H-imidazol-5-yl)phenyl)pyrrolidin-1-yl)sulfonyl)pyridin-2-yl)amino)ethanol] |  | 
5 | 3720 | 0.7 | 5820 | 4.2 | 3410 | > 10000 | O=S(=O)(c1ccc(N2CCC(O)CC2)nc1)N1CCCC1c1ccccc1-c1cncn1CCc1ccc(F)cc1 (single isomer, unassigned) [Compound 32, (R or S)-1-(5-((2-(2-(1-(4-fluorophenethyl)-1H-imidazol-5-yl)phenyl)pyrrolidin-1-yl)sulfonyl)pyridin-2-yl) piperidin-4-ol] |  | 
6 | > 10000 | > 100 | 6510 | 123 | > 10000 | > 10000 | CN1CCN(c2ncc(S(=O)(=O)N3CCc4c(ncnc4-c4cncn4CCc4ccc(F)cc4)C3)s2)CC1 [Compound 67, 5-((4-(1-(4-fluorophenethyl)-1H-imidazol-5-yl)-5,6-dihydropyrido[3,4-d]pyrimidin-7(8H)-yl)sulfonyl)-2-(4-methylpiperazin-1-yl)thiazole] |  | 
7 | 6930 | 0.9 | 3060 | 4 | 9720 | > 10000 | O=S(=O)(c1ccc(N2CCN(CCO)CC2)nc1)N1CCCC1c1ccccc1-c1cncn1CCc1ccc(F)cc1 (single isomer, unassigned) [Compound 35b, (R or S)-2-(4-(5-((2-(2-(1-(4-fluorophenethyl)-1H-imidazol-5-yl)phenyl)pyrrolidin-1-yl)sulfonyl)pyridin-2-yl)piperazin-1-yl)ethanol] |  | 
8 | 2890 | 12.6 | 6500 | 22.5 | > 10000 | > 10000 | O=S(=O)(c1ccc(N2CCC(O)CC2)nc1)N1CCCC1c1ccccc1-c1cncn1CCc1ccc(F)cc1 (single isomer, unassigned) [Compound 33, (R or S)-1-(5-((2-(2-(1-(4-fluorophenethyl)-1H-imidazol-5-yl)phenyl)pyrrolidin-1-yl)sulfonyl)pyridin-2-yl) piperidin-4-ol] |  | 
9 | 2200 | 4.3 | 9040 | 7.6 | 2730 | 3840 | CC(C)OC(=O)N1CCCC1c1ccccc1-c1cncn1CCc1ccc(F)cc1 (single isomer, unassigned) [Compound 39a, (R or S)-isopropyl 2-(2-(1-(4-fluorophenethyl)-1H-imidazol-5-yl)phenyl) pyrrolidine-1-carboxylate] |  | 
10 | > 10000 | > 100 | > 10000 | 58.6 | 6910 | > 10000 | O=C(C1CCOCC1)N1CCCC1c1cccc(-c2cncn2CCc2ccc(F)cc2)c1 (single isomer, unassigned) [Compound 49b, (R or S)-(2-(3-(1-(4-fluorophenethyl)-1H-imidazol-5-yl)phenyl)pyrrolidin-1-yl)(tetrahydro-2H-pyran-4-yl)methanone] |  | 
11 | 1520 | 0.7 | 6990 | 3.5 | 2390 | > 10000 | CN(C)c1ccc(S(=O)(=O)N2CCCC2c2ccccc2-c2cncn2CCc2ccc(F)cc2)cn1 (single isomer, unassigned) [Compound 28a, (R or S)-5-((2-(2-(1-(4-fluorophenethyl)-1H-imidazol-5-yl)phenyl)pyrrolidin-1-yl)sulfonyl)-N,N-dimethylpyridin-2-amine] |  | 
12 | 7950 | 2 | 5360 | 5.8 | > 10000 | 4490 | O=C(c1ccc(N2CCOCC2)nc1)N1CCCC1c1ccccc1-c1cncn1CCc1ccc(F)cc1 (single isomer, unassigned) [Compound 43b, (R or S)-(2-(2-(1-(4-fluorophenethyl)-1H-imidazol-5-yl)phenyl)pyrrolidin-1-yl) (6-morpholino-pyridin-3-yl) methanone] |  | 
13 | 4640 | 34.7 | 6780 | 22.6 | 2110 | 1160 | CS(=O)(=O)N1CCCC1c1cccc(-c2cncn2CCc2ccc(F)cc2)c1 (stereo not drawn) [Compound 51, 1-(4-fluorophenethyl)-5-(3-(1-(methylsulfonyl)pyrrolidin-2-yl)phenyl)-1H-imidazole] |  | 

Row | SMILES | IC50 (CYP2C9; [3]) [nM] | IC50 (CYP3A4 [1]) [nM] | IC50 (CYP2D6) [nM] | IC50 (CYP3A4 [2]) [nM] | IC50 (CYP2C19; [4]) [nM] | IC50 (CYP1A2) [nM] | IC50 (CYP2C9; [5]) [nM] | IC50 (CYP2C19; [6]) [nM]
14 | C[C@@H](NS(=O)(=O)c1cnc(N2CCN3C[C@H](O)C[C@H]3C2)s1)c1ccccc1-c1cncn1CCc1ccc(F)cc1 [Compound 6a, N-((R)-1-(2-(1-(4-fluorophenethyl)-1H-imidazol-5-yl)phenyl)ethyl)-2-((7R,8aS)-7-hydroxy-hexahydro-pyrrolo[1,2-a]pyrazin-2(1H)-yl)thiazole-5-sulfonamide] |  | 8.6 | 2540 | 7.5 |  | > 10000 | 4550 | 8700
15 | C[C@H](NS(=O)(=O)c1cnc(N2CCN3C[C@H](O)C[C@H]3C2)s1)c1ccccc1-c1cncn1CCc1ccc(F)cc1 [Compound 6b, N-((S)-1-(2-(1-(4-fluorophenethyl)-1H-imidazol-5-yl)phenyl)ethyl)-2-((7R,8aS)-7-hydroxy-hexahydro-pyrrolo[1,2-a]pyrazin-2(1H)-yl)thiazole-5-sulfonamide] |  | 40.3 | 3500 | 30 |  | > 10000 | 5450 | > 10000
